Assay results: patent US20060002932A1, “Methods and compositions for enhancement of immunity by in vivo depletion of immunosuppressive cell activity” (priority 2004, published 2006)
Values joined by “and” are separate entries in the source; they are usually repeats but may differ in a detail not shown here. Equal entries are not always repeated. “Also recorded” adds a separate entry of the source.

Key:
[1] = system: renal tumor-specific CD4^+ T cells; experiment: Cytokine profile of vaccine-induced CD4+ T cells (ELISPOT, Th1/Th2 bead array); assay type: in vivo, human
tumor-specific T cells = experiment: Interferon-γ ELISPOT of vaccine-induced tumor-specific T cells in patients; assay type: in vivo, human
Procedure: PBMC were cultured overnight in RPMI 1640 medium supplemented with 10% FCS. […] After washing, spots were counted using an automated Zeiss KS Elispot Compact reader (Carl Zeiss Inc., Minneapolis, Minn.).
In order to determine whether DAB389IL-2-mediated regulatory T cell depletion is capable of augmenting vaccine-induced CTL responses in vivo, Interferon-γ ELISPOT analysis was used to determine the frequencies of vaccine-induced, tumor-specific T cells from PBMC samples collected prior to (white bars) and two weeks after (grey bars) the third vaccination (study week 8). Purified CD8^+ T cells were isolated from pre- and post-vaccination PBMCs and were cultured overnight with tumor RNA transfected DC targets. As controls, PBMC RNA or benign renal epithelium (RE)-derived RNA-transfected DCs were used for short-term antigenic stimulation. Visible spots were then counted using an automated ELISPOT reader. […] In contrast, a significant increase of tumor-specific T cells was consistently observed in the treated subjects after vaccination. […]
Pre- and post-treatment T-cell analysis was performed by Interferon-γ ELISPOT on all patients who completed immunotherapy. Increases of antigen-specific CD4^+ and CD8^+ T cells after vaccination were compared using the Wilcoxon matched-pairs signed rank test, analyzing the null hypothesis that the rates of change in T-cell response were equivalent prior to and after therapy. A two-sided p-value of <0.05 was considered statistically significant.
In order to determine whether DAB389IL-2-mediated Treg depletion is capable of augmenting vaccine-induced CD8^+ and CD4^+ T-cell responses in cancer patients, Interferon-γ ELISPOT analyses were performed to determine the frequencies of vaccine-induced, tumor-specific T cells from PBMC samples collected before and two weeks after the third vaccination. CD8^+ and CD4^+ T cells were isolated from pre- and post-vaccination PBMC and cultured overnight with tumor RNA-transfected DC targets. As controls, autologous PBMC RNA or autologous benign renal epithelium (RE)-derived RNA-transfected DC were used for short-term antigenic stimulation. As exemplified by the 3 study subjects shown in FIG. 10A, only background levels of PBMC-specific T cells were observed before (white bars) or after vaccination (grey bars).

[2] = 6 RCC patients, DAB389IL-2 plus RCC RNA-transfected DC
[3] = per patient, DAB389IL-2 4 days prior to tumor RNA-transfected DC vaccination

Substance: denileukin diftitox [DAB389IL-2]
- Th1/Th2 cytokine secretion by vaccine-induced T cells (bead array) ([1]; 18 hours stimulation with RCC RNA-transfected DC): secretion of Th-1 type cytokines (IL-2, Interferon-γ, or TNF-α), but not Th-2 type cytokines
- Interferon-γ / IL-4 secreting renal tumor-specific CD4 T cells (ELISPOT) ([1]; one subject, DAB389IL-2 followed by vaccination): stimulation of Interferon-γ, but not IL-4-secreting renal tumor-specific CD4 T cells
- median increase in tumor-specific CD4^+ T cells (tumor-specific T cells; [2]): 7.2 fold
- median increase in tumor-specific CD8^+ T cells (tumor-specific T cells; [2]): 7.9 fold
- tumor-specific T-cell response after DAB389IL-2 alone (tumor-specific T cells; DAB389IL-2 only, no vaccine): did not increase a tumor-specific CTL response in vivo; also recorded: did not significantly increase
- tumor-specific (CD8^+) T cells vs vaccination alone (tumor-specific T cells; DAB389IL-2 plus vaccination compared with vaccine alone): significantly higher numbers of tumor-specific CD8^+ T cells
- increase in tumor-specific CTL frequencies (tumor-specific T cells; Example 2, subjects receiving combined treatment): up to 16 fold
- CD4^+ T-cell responses vs vaccination alone (tumor-specific T cells; combined therapy, RCC patients, p=0.055): trend towards improved CD4^+ T-cell responses
- ELISPOT (Fold increase after vaccination) CD4^+ (tumor-specific T cells; [3]): 7.6 fold and 6.3 fold and 2.2 fold and 9.7 fold and 31.0 fold and 6.8 fold and 4.5 fold
- ELISPOT (Fold increase after vaccination) CD8^+ (tumor-specific T cells; [3]): 16.0 fold and 12.5 fold and 5.4 fold and 7.4 fold and 7.8 fold (2×) and 8.0 fold
- longitudinal vaccine-induced CD8^+ T-cell response (tumor-specific T cells; subject 02-DAB vs 11-RCC): significantly enhanced and also prolonged CD8^+ T-cell response
